In ChEMBL document CHEMBL1144363, “Human immunodeficiency virus-reverse transcriptase inhibition and hepatitis C virus RNA-dependent RNA polymerase inhibition activities of fullerene derivatives” (Bioorg Med Chem Lett, 2005):

Columns and labels:
[1] = target: RNA-directed RNA polymerase (Hepacivirus hominis, UniProt O39930); assay: Inhibitory concentration against Hepatitis C virus-RNA-dependent RNA polymerase
[2] = target: Human immunodeficiency virus type 1 reverse transcriptase (Human immunodeficiency virus 1, UniProt Q72547); assay: Inhibitory concentration against HIV-Reverse transcriptase

RNA-directed RNA polymerase, sequence (O39930 whole entry): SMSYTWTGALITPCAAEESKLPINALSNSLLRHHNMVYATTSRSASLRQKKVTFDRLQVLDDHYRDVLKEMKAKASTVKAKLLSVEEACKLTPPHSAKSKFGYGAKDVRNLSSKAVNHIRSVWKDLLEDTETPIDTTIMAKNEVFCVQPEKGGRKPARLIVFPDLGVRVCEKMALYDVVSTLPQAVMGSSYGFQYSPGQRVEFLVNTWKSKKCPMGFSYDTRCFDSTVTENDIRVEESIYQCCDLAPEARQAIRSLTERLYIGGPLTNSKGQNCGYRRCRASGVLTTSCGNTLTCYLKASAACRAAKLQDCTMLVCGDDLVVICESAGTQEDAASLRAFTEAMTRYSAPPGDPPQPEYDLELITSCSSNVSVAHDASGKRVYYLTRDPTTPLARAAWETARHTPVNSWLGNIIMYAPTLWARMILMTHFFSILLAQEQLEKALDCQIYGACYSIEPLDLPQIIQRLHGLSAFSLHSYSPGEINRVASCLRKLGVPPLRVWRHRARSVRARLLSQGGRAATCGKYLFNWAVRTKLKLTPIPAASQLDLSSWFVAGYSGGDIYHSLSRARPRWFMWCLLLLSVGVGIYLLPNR

IC50 [1] [nM]	IC50 [2] [nM]	SMILES
> 10000	1000	O=C(O)CN1C[C@@]23C4=C5c6c7c8c9c(c%10c%11c%12c%13c%14c%15c%16c%17c%18c%19c%20c%21c%22c%23c(c6c6c8c8c%24c9c%11c9c(c%16%12)c%17c%11c%19c%12c%21c%23c6c8c%12c%11c9%24)[C@@H]5[C@@H]5C=%22[C@H]6c8c(c-%14c(c4c85)[C@@H]2[C@H]%13%10)[C@H]%15[C@@H]%18[C@@H]%206)[C@]73[C@@H]1C(=O)O
100		CCCCn1c(=O)c(C2=NS(=O)(=O)c3ccccc3N2)c(O)c2ccccc21
1400	1300	CCCCCCCCCC[N@+]1(C)C[C@@]23c4c5c6c7c8c9c%10c%11c%12c%13c%14c%15c%16c%17c%18c%19c%20c%21c(c2c2c4c4c6c9c6c4c4c2c%21c2c%19c(c%18%14)c9c%13c%10c6c9c24)C2=C4c6c(c-%16c9c%10c6[C@H]([C@@H]5C7=C%10[C@]5(C[N+](C)(C)C[C@]8%115)[C@H]9[C@H]%15%12)[C@@]43C1)[C@@H]%17[C@H]2%20

More lines, now with the values behind:

SMILES	IC50 [1] [nM]	IC50 [2] [nM]
C[N+]1(C)C[C@@]23C4=C5C6=C7c8c9c%10c%11c%12c%13c%14c%15c%16c%17c%18c%19c%20c%21c%22c%23c%24c%25c%26c%27c(c(c8c8c%10c%13c(c%278)c8c%14c%17c(c%24c%22%18)c%268)[C@@]72C1)[C@H]%25[C@@H]3C=%23[C@@H]4[C@H]%21c1c5c2c3c(c1-%20)[C@H]([C@H]%19%16)[C@@]1(C[N+](C)(C)C[C@]%12%151)C3=C%11[C@H]9[C@H]62	240	1600
O=C(O)C1(C(=O)O)[C@]23c4c5c6c7c8c9c%10c%11c%12c%13c%14c%15c%16c%17c%18c%19c%20c(c2c2c4c4c6c6c8c%10c8c%12c%10c%14c(c%15%19)c%12c%20c2c2c4c6c8c%10c%122)[C@@H]%18[C@H]2c4c6c8c%10c(c4-%17)[C@@H]%16[C@H]%13[C@@]%114C(C(=O)O)(C(=O)O)[C@]%104C=9[C@H]8[C@@H]7C5=C6[C@@]213	3200	1200
C[N+]1(C)C[C@]23c4c5c6c7c8c9c%10c%11c%12c%13c%14c%15c%16c%17c%18c%19c%20c%21c(c2c2c4c4c6c9c6c4c4c2c%21c2c(c%16%20)c%15c9c%13c%10c6c9c24)[C@@H]%19[C@H]2c4c6c9c%10c(c4-%18)[C@@H]%17[C@@H]%14C%12=C%10[C@]4(C[N+](C)(C)C[C@@]8%114)[C@H]9[C@@H]7C5=C6[C@]23C1	310	1700
C[N+]1(C)C[C@]23c4c5c6c7c8c9c%10c%11c%12c%13c%14c%15c%16c%17c%18c%19c%20c(c2c2c4c4c6c6c8c%10c8c%12c%10c%14c(c%15%19)c%12c%20c2c2c4c6c8c%10c%122)[C@@H]%18[C@H]2c4c6c8c%10c(c4-%17)[C@@H]%16[C@H]%13[C@@]%114C[N+](C)(C)C[C@]%104C=9[C@H]8[C@@H]7C5=C6[C@]23C1	310	1400
